Reference: PMC3338484
Values joined by “and” are separate entries in the source; they are usually repeats but may differ in a detail not shown here. Identical values can stand only once.

Columns and labels:
[1] = molecular target: T1, PaFolD (Pseudomonas aeruginosa, UniProt Q9I2U6); assay: FolD enzyme assay (absorbance at 350 nm), IC50 determination; assay type: biochemical; conditions: for Hill coefficient: from PaFolD IC50 curves
T1 construct: hexa-histidine tag with TEV protease site (N, cleaved yes); made in house; host or cells: E. coli BL21 (DE3)
T1 sequence (Q9I2U6 whole entry): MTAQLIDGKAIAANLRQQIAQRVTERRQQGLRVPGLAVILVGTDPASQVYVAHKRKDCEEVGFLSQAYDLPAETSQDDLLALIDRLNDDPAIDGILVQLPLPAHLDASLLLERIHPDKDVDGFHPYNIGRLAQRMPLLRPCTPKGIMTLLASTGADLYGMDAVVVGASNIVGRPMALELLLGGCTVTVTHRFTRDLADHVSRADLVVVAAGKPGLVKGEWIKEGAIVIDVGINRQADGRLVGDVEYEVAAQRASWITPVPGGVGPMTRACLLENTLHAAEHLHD
Experimental: Enzyme activity was assayed by measuring the absorbance at 350 nm of the intermediate product in the reaction, N ^5,N ^10-methenyl-THF, following acidification of the reaction and consequent reconversion of the final product formyl-THF to the intermediate. Following optimization of the assay buffer and determination of the enzyme linearity, assays were carried out at room temperature in a 50 µL reaction volume containing 25 mM bicine, pH 7.9, 1 mM dithiothreitol, 0.05% CHAPS, 0.2 mg mL^−1 BSA, 1 nM recombinant FolD, […] NADP^+ and 35 µM N ^5,N ^10-methylene-THF. Michaelis constants for the two substrates (NADP^+ and N ^5,N ^10-methylene-THF) were determined in an end-point assay, using these buffer and enzyme conditions.
The HTS was performed with a compound collection of 79,029 diverse structures based around 4000 chemical scaffolds. All compounds were dissolved in 100% DMSO to a concentration of 3 mM. Single point inhibition assays were carried out at room temperature in clear, flat bottom, polystyrene, 384-well plates (Matrix). Each assay was performed in a 50 µL reaction volume as described above. A standard compound (0.5 µL in DMSO) was transferred to all assay plates using a Cartesian Hummingbird (Genomics Solutions) before 25 µL of a reaction mix, containing all assay components except NADP^+ and N ^5,N ^10-methylene-THF, was added to assay plates using a Thermo Scientific Well-Mate (Matrix). The reaction was initiated and stopped with the additions of 25 µL of substrate and 50 µL of 1 M HCl, respectively, again using a Well-Mate. The FolD assay was run at room temperature for 20 min and the signal was allowed to develop for 10 min before the absorbance of each well was read at 350 nm using an EnVision multilabel plate reader (PerkinElmer Life Sciences). ActivityBase (ID Business Solutions) was used for data processing and analysis.
Compounds of interest were cherry picked from the original library plates using a series of 10-point inhibitor curves (consisting of half-log serial dilutions of compound in DMSO) and prepared in 384-well plates using a JANUS workstation (PerkinElmer Life Sciences). Each compound plate produced 10-point inhibitor curves for 30 test compounds and two curves for LY374571, the standard compound in this screen (see following paragraph for inhibitor details). Following preparation of the inhibitor curves, assays were carried out as described above. ActivityBase was again used for data processing and analysis. All IC50 curve fitting was undertaken within ActivityBase XE utilizing the underlying ‘MATH IQ’ engine of XLfit version 5.1.0.0. A four-parameter logistic dose-response curve was utilized for compound potency determination.
Enzyme activity was assayed in an optimised buffer at 1 nM PaFolD. […] When saturating concentrations of either substrate or co-factor were required N ^5,N ^10-methylene-THF was used at 250 µM and NADP^+ at 1 mM. For screening the compound library N ^5,N ^10-methylene-THF was fixed at a concentration of 35 µM and NADP^+ was saturating at 1 mM and the assay was stopped after 20 minutes (within the linear range of the assay).

[2] = tested on: P. aeruginosa PAO1 ATCC 15692; assay: Disc diffusion sensitivity testing; assay type: cell-based, Pseudomonas aeruginosa; conditions: for clearance in disc diffusion sensitivity assay: six dilutions, approximately 115 µg to 4.5 ng per disc, zones measured after 16 and 48 hours, data not shown
Experimental: Compounds identified by HTS were used in a disc diffusion sensitivity test against P. aeruginosa. Briefly a single colony of P. aeruginosa PAO1 ATCC 15692 was used to inoculate a 2 mL volume of LB media prior to overnight growth at 37°C. The bacteria were then diluted 1∶100 fold prior to 100 µL volumes plated onto Iso-Sensitest agar plates and dried in air for 5 minutes. Eight 3 mm discs were impregnated with 5 µl of compound, dissolved in DMSO, prior to loading onto each plate. Two controls were used per plate, one a 100% DMSO stock, the other a 10 µg stock of gentamycin. Six compound dilutions were tested per plate, ranging from approximately 115 µg to 4.5 ng. Three compounds with known antifolate activity were tested, namely methotrexate, LY354899 and LY374571 in addition to the three singletons, DDD32388, DDD55519 and DDD61461, and two of the biaryl sulphonamide series that had been identified. Plates were incubated at 37°C, and zones of inhibition measured after 16 and 48 hours.

[3] = molecular target: T1, PaFolD; assay: Differential scanning fluorimetry (DSF) thermal shift screen; assay type: binding; conditions: standards at 250 µM; 4 µM PaFolD, 4 mM NADP+
Excerpt: It was reasoned that such conditions would favour crystallization. In addition two compound libraries, the Maybridge fragment set and the Prestwick collection of biologically active molecules, were screened after first assessing the suitability of the method for PaFolD, the optimum buffer and cofactor conditions and the lowest concentration of protein that generated a strong signal as previously described for our laboratory. An Mx3005p RT PCR system (Stratagene) was used to monitor protein unfolding by the increase in fluorescence of SYPRO Orange dye (Invitrogen). Briefly, the enzyme was tested against 1000 compounds from the Maybridge Rule of Three (Ro3) fragment library and 1120 compounds from the Prestwick Chemical Library. Assays were carried out in 40 µL volumes with PaFolD at 4 µM, supplemented with 4 mM NADP^+ in 50 mM Tris-HCl, 250 mM NaCl, pH 7.5 in 96 well RT PCR plates (Abgene). […] After each 1°C increase the sample was excited at 492 nm and fluorescence emissions recorded at 610 nm. […]
In advance of performing a large-scale HTS, PaFolD was assayed combining DSF with the Prestwick Chemical Library of drug-like molecules (1,200 compounds) and a bespoke Maybridge RO3 fragment library of 1,000 compounds. […] A number of compounds in the Prestwick library gave apparent thermal shifts of approximately +10°C, however all of these were rejected due to their intrinsic fluorescence. […]

[4] = tested on: HsFolD; conditions: slightly different assay conditions; read-out: IC50 against HsFolD; cited from earlier work
[5] = molecular target: T1, PaFolD; assay: Surface plasmon resonance (SPR) binding to biotinylated PaFolD; conditions: for rate of association (SPR): association measured for 1 min, LY374571 could not compete off this binding; for binding to PaFolD by SPR: running buffer with 1 mM NADP+, 1% DMSO, data not shown
Experimental: For analysis of compounds using SPR it was necessary to produce an expression system that provided a protein carrying a biotinylation acceptor peptide (BAP-tag). This BAP-tag peptide has the sequence 5′ - […] - 3′ and is specifically biotinylated by the E. coli biotin holoenzyme synthetase, BirA. The modified PaFolD was then purified as before. Subsequently 30 µM of BAP-tagged PaFolD was incubated at 37°C overnight in buffer C (10 mM Tris-HCl pH 7.5, 200 mM KCl, 5 mM MgCl2, 100 µM d-biotin) containing 500 µM ATP and 1 µM BirA. The sample was passed through a HisTrap HP column equilibrated with buffer A to remove BirA. The flow through was collected and concentrated (Amicon 10 kDa MWCO spin column) to remove free biotin. The incorporation of biotin was monitored by MALDI-TOF analysis performed at the University of Dundee ‘Fingerprints’ Proteomics Facility using an Applied Biosystems Voyager DE-STR spectrometer. The biotinylated protein was flash frozen at 10 mg mL^−1 in 50 mM Tris-HCl, 250 mM NaCl, 15% glycerol, pH 7.5 and stored at −80°C until required.
A Biacore T100 instrument (GE Healthcare) was used for all SPR experiments. Biotinylated PaFolD was diluted 50-fold into a running buffer containing 50 mM Tris-HCl, pH 7.5, 150 mM NaCl, 5 mM MgCl2, 1 mM DTT, 0.05% Tween 20, 1 mM NADP^+ and 1% DMSO and injected over a streptavidin chip (GE Healthcare) at a flow rate of 10 µL min^−1 for 10 min to obtain a density of ∼4,000 response units. Compounds DDD55519 and DDD61461 were injected in duplicates at three-fold concentration series 136 nM–11 µM at a flow rate 30 µL min^−1. Association was measured for 1 min and dissociation for 20 min. Compounds DDD32388 and DDD58331 were injected at three-fold concentration series of between 1.23 µM–100 µM at a flow rate 30 µL min^−1. Association was measured for 1 min and dissociation 2 min. Data were referenced from a blank streptavidin surface and blank injections of buffer. Processing was carried out using Scrubber 2 software (BioLogic Software, Australia).

[6] = IC50 (μM), confirmed HTS hits, ten-point dose response, 30 µM to 1 nM

Nc1nc(O)c(N)c(NC(=O)Nc2ccc(C(=O)N[C@H](CCC(=O)O)C(=O)O)cc2)n1 [LY374571, (2R)-2-[(4-{[(2,5-diamino-6-hydroxypyrimidin-4-yl)carbamoyl]amino}phenyl)formamido] pentanedioic acid]
IC50 ([1]; IC50 against PaFolD, 1 nM PaFolD, 35 µM N5,N10-methylene-THF, 1 mM NADP+, 20 min): ~0.03 µM and 0.027 µM | clearance in disc diffusion sensitivity assay [2]: failed to give any clearance | ΔTm at 250 µM [3]: 15 °C | IC50 [4]: 3 nM

NC(=O)c1ccc[n+]([C@@H]2O[C@H](COP(=O)([O-])OP(=O)(O)OC[C@H]3O[C@@H](n4cnc5c(N)ncnc54)[C@H](OP(=O)(O)O)[C@@H]3O)[C@@H](O)[C@H]2O)c1 [NADP^+]
Km ([1]; 1 nM PaFolD, end-point assay, other substrate saturating, mean ± SD (n = 4), read-out: Michaelis constant (Km)): 179 ± 11 µM

Cc1[nH]c2c(C#N)cnn2c(=O)c1Cc1ccccc1 [DDD55519]
IC50 [1, 6]: 3.8 µM | Hill coefficient [1]: 1.2 | rate of association (SPR) [5]: slow rates of association | binding to PaFolD by SPR [5]: confirmed

Nc1nc2c(c(=O)[nH]1)N1C(=O)N(c3ccc(C(=O)N[C@@H](CCC(=O)O)C(=O)O)cc3)CC1CN2 (stereo partly shown) [LY354899, 5,6,7,8-tetrahydro-N ^5,N ^10-carbonylfolic acid]
clearance in disc diffusion sensitivity assay [2]: failed to give any clearance | thermal shift [3]: +9 °C

gentamycin
radius cleared (zone of inhibition) ([2]; 10 µg stock control disc, P. aeruginosa PAO1): 13 mm

CCOc1nc(N)nc(N)c1S(=O)(=O)c1ccc(Cl)cc1 [DDD32388]
IC50 [1, 6]: 0.9 µM | Hill coefficient [1]: 1.6 | binding to PaFolD by SPR [5]: weak

Oc1cc(C(F)(F)F)nc(SCc2c(F)cccc2Cl)n1 [DDD61461]
IC50 [1, 6]: 2.5 µM | Hill coefficient [1]: 2.6 | rate of association (SPR) [5]: slow rates of association | binding to PaFolD by SPR [5]: confirmed
